The values below are quoted from earlier work in patent US11377636B2, “Endogenous retrovirus transcription as a marker for primate naive pluripotent stem cells” (Max-Delbrück-Centrum für Molekulare Medizin in der …, priority 2014, dated 2022).

By IC50 is commonly meant the concentration at which inhibition is half-maximal.

For one data set, the target named is T1, PKCμ (Homo sapiens, UniProt Q15139).
T1 sequence (Q15139 1-912): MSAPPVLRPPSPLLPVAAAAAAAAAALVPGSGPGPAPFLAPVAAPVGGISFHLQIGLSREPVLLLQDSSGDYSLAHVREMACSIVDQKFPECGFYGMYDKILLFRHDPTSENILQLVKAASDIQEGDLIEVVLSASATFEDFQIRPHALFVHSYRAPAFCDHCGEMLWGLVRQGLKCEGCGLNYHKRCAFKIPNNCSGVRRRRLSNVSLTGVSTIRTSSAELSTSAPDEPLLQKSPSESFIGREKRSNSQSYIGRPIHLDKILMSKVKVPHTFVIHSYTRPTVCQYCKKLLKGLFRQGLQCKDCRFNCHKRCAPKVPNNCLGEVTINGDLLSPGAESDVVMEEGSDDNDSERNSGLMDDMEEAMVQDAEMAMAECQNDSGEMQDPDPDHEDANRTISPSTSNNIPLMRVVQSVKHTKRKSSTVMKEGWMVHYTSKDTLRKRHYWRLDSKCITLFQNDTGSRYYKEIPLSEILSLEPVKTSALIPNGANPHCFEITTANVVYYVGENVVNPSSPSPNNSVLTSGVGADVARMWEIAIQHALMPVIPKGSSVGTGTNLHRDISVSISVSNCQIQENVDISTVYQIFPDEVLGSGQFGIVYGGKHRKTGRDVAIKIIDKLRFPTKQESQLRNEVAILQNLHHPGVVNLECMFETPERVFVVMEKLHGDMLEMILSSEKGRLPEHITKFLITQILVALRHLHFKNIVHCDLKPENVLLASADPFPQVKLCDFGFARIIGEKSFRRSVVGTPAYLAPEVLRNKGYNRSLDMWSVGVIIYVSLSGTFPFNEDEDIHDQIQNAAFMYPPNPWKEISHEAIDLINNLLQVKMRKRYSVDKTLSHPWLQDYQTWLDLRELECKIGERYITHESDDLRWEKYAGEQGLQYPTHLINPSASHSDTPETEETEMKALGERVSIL
The settings on record: does not effectively inhibit PKCμ.

A further data set concerns the target PKCδ (Homo sapiens, UniProt Q05655).
The next data set deals with PKCα (Homo sapiens, UniProt P17252).
The next data set concerns the target PKCβ (Homo sapiens, UniProt P05771).
A further data set has as its target T2, PKCζ (Homo sapiens, UniProt Q05513).
T2 sequence (Q05513 1-592): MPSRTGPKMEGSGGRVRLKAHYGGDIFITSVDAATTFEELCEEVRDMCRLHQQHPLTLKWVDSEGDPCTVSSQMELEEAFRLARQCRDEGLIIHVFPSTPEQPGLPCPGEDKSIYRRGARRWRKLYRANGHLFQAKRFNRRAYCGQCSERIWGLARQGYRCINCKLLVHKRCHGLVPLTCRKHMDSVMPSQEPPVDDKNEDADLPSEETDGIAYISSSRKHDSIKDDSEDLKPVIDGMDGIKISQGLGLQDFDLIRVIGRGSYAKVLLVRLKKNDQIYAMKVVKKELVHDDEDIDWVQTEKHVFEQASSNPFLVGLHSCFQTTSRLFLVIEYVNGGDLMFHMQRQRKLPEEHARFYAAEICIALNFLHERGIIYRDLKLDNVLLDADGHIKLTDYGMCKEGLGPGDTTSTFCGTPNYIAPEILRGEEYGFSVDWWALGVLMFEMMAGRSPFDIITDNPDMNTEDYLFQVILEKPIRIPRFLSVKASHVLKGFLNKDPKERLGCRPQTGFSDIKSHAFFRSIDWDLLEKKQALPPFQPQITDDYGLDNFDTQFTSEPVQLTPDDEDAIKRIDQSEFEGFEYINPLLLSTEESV

For the next data set, the target named is PKCγ (Homo sapiens, UniProt P05129).
For the next data set, the target named is GSK3β (Homo sapiens, UniProt P49841).
The next data set deals with Src kinase (Homo sapiens, UniProt P12931).
For another data set, the target named is KDR (Homo sapiens, UniProt P35968).
KDR, sequence (P35968 20-1356, species assumed): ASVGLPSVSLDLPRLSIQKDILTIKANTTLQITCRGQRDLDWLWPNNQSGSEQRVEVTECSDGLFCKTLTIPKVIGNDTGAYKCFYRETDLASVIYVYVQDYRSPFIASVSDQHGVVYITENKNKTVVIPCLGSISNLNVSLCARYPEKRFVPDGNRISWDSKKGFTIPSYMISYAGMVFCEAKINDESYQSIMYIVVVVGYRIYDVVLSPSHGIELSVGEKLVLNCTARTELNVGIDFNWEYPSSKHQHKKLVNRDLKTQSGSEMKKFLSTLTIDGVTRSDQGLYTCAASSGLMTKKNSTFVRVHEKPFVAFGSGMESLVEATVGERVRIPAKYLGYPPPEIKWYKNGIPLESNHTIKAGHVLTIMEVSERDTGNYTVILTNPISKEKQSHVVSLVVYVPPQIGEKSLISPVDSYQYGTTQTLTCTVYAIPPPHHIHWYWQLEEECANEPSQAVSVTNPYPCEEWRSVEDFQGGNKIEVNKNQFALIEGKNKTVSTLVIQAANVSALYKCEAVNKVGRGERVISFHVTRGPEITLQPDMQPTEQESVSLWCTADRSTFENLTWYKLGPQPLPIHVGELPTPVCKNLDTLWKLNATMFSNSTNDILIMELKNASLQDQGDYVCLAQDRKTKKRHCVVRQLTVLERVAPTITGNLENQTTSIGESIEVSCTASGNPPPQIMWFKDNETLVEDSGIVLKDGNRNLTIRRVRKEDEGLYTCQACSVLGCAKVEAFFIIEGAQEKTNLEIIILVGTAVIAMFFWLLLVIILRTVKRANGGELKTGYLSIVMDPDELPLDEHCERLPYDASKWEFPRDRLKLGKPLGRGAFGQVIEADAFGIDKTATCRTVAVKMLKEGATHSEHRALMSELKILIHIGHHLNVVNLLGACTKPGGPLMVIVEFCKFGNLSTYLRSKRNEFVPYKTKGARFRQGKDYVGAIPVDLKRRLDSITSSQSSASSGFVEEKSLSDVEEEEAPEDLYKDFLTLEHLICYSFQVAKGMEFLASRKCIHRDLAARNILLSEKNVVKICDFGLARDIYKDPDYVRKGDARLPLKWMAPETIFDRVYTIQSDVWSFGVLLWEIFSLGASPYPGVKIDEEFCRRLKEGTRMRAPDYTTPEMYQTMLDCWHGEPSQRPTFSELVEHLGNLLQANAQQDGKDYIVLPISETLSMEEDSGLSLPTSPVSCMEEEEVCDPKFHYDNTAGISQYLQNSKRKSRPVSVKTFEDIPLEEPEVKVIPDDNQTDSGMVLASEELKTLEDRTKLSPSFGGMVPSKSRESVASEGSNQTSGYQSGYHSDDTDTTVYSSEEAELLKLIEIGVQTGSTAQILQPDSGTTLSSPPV

PKCβ, sequence (P05771 whole entry, species assumed): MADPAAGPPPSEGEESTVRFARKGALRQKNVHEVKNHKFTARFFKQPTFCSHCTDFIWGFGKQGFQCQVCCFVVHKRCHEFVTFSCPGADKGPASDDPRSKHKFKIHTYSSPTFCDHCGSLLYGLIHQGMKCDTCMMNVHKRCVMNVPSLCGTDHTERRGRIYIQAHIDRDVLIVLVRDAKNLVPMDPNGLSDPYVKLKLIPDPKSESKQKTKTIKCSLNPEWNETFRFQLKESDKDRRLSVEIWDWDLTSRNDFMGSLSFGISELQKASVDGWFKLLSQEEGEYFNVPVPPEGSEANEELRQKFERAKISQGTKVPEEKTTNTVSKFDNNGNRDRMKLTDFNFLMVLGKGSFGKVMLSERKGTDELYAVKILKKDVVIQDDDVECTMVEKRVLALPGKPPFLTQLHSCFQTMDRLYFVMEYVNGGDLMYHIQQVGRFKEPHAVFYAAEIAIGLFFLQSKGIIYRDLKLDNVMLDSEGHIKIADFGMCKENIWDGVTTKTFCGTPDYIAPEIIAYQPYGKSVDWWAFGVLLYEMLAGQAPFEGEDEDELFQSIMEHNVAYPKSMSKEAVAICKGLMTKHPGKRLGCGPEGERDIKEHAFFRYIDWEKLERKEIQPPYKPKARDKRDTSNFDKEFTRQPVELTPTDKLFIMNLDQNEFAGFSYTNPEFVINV
PKCδ, sequence (Q05655 whole entry): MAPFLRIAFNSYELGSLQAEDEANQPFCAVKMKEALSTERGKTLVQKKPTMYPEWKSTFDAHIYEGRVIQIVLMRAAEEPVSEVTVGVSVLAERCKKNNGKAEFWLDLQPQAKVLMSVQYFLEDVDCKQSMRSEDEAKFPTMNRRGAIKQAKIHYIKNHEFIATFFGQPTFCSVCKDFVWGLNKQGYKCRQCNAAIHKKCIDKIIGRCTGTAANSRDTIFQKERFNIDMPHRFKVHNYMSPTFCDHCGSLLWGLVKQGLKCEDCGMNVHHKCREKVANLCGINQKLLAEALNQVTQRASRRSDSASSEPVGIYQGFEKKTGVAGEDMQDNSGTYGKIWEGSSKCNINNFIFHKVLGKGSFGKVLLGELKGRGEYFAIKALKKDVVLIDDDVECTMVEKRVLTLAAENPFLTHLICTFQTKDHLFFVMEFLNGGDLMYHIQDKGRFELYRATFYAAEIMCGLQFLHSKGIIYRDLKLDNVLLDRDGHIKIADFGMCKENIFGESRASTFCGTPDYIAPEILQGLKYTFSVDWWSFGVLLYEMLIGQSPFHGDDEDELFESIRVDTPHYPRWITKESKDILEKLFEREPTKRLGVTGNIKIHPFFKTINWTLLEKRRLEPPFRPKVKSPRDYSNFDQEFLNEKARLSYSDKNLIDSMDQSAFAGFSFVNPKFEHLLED
GSK3β, sequence (P49841 whole entry, species assumed): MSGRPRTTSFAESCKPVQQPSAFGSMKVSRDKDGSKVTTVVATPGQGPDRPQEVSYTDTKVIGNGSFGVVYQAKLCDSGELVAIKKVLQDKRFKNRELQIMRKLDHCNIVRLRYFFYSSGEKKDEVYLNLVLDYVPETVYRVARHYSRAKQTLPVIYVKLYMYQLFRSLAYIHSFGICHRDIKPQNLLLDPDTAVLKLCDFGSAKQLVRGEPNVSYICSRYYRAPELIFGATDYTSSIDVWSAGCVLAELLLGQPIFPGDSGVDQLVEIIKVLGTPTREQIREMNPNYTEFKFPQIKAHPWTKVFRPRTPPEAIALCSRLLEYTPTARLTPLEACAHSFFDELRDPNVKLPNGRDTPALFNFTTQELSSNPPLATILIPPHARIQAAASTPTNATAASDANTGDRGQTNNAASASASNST

On to `CN1C(=O)[C@@]23C[C@]4([C@]56C[C@@]78SS[C@@](CO)(C(=O)N7[C@H]5Nc5ccccc56)N(C)C8=O)c5ccccc5N[C@@H]4N2C(=O)[C@]1(CO)SS3` [Chaetocin], for which the “cytotoxicity against HeLa cells IC50” value with HeLa cells is 0.05 µg/mL.
For `COc1ccc2c(c1)c(C1=C(c3c[nH]c4ccccc34)C(=O)NC1=O)cn2CCCN(C)C` [Go6983], the IC50 at PKCμ is 20000 nM; on PKCδ it was 10 nM; at PKCα it was 7 nM; on PKCβ, 7 nM; at PKCζ it was 60 nM; at PKCγ it was 6 nM.
Regarding `Cc1[nH]c2ccccc2c1C1=C(NCCc2ccc(F)cc2)C(=O)N(C)C1=O` [IM-12], the IC50 on GSK3β was 53 nM.
Take WH-4-023: the IC50 at Src kinase was 6 nM. On KDR, the “inhibition on KDR” value is reported as “little inhibition”.
